# Experimental data: patent publication US6498154B1, “Cyclic regimens using quinazolinone and benzoxazine derivatives” (Wyeth, priority 1999, dated 2002)
# Several values for one entry are separate records, joined by “and”; a condition that tells them apart may be missing. Equal values may be shown once.
# Test system: rat uterine decidualization
# Assay: Rat decidualization assay
# Type: in vivo
# Conditions: average of dose-response curves, rat decidualization, s.c.
# Protocol: 1. Rat decidualization assay
# b. Animals (RACUC protocol #5002)
# The animals are treated once daily for seven days.
# Uteri are removed and trimmed of fat.
# Body weight: Mean total animal body weight (default-kg)
# Decidual response: [(D-C)/C]×100%
row,SMILES,Estimated average EC50
1,"C#C[C@]1(O)CC[C@H]2[C@@H]3CCC4=CC(=O)CC[C@@H]4[C@H]3C(=C)C[C@@]21CC [3-Ketodesogestrel, 3-ketodesogestrel]","0.10 mg/kg, s.c."
2,"C#C[C@]1(O)CC[C@H]2[C@@H]3CCC4=CC(=O)CC[C@@H]4[C@H]3CC[C@@]21CC [Levonorgestrel, levonorgestrel]","0.10 mg/kg, s.c."

# Same assay, conditions: decrease in EC50 progesterone (5.6 mg/kg) induced decidual response, rat, s.c.
row,SMILES,Estimated IC50
1,CC#C[C@]1(O)CC[C@H]2[C@@H]3CCC4=CC(=O)CCC4=C3[C@@H](c3ccc(N(C)C)cc3)C[C@@]21C [RU486],"0.21 mg/kg, s.c. and 0.14 mg/kg, s.c."

# Same assay, conditions: ovariectomized female Sprague-Dawley rats, once daily for seven days, s.c.; individual studies
row,SMILES,Estimated EC50 for uterine wet weight
1,"C#C[C@]1(O)CC[C@H]2[C@@H]3CCC4=CC(=O)CC[C@@H]4[C@H]3C(=C)C[C@@]21CC [3-Ketodesogestrel, 3-ketodesogestrel]","0.10 mg/kg, s.c. and 0.06 mg/kg, s.c. and 0.11 mg/kg, s.c."
2,"C#C[C@]1(O)CC[C@H]2[C@@H]3CCC4=CC(=O)CC[C@@H]4[C@H]3CC[C@@]21CC [Levonorgestrel, levonorgestrel]","0.08 mg/kg, s.c. and 0.12 mg/kg, s.c. and 0.09 mg/kg, s.c. (2×)"
3,"CC(=O)O[C@]1(C(C)=O)CC[C@H]2[C@@H]3C[C@H](C)C4=CC(=O)CC[C@]4(C)[C@H]3CC[C@@]21C [MPA, medroxyprogesterone acetate]","0.42 mg/kg, s.c. and 0.39 mg/kg, s.c. (2×)"
4,"CC(=O)[C@H]1CC[C@H]2[C@@H]3CCC4=CC(=O)CC[C@]4(C)[C@H]3CC[C@]12C [Progesterone, progesterone]","5.50 mg/kg, s.c."

# Test system: not given
# Assay: not given
# Conditions: not given
row,SMILES,melting point
1,"CC1(C)CC(=O)Nc2ccc(-c3cccc(Cl)c3)cc21 [6-(3-Chlorophenyl)-4,4-dimethyl-3,4-dihydro-1H-quinolin-2-one]",211 to 215 °C
2,"CC1OC(C)(C)Nc2ccc(-c3cccc([N+](=O)[O-])c3)cc21 (stereo not shown) [Compound 3, 6-(3-Nitro-phenyl)-2,2,4,-trimethyl-1,4dihydro-2H-benzo[d][1,3]oxazine]",188 to 189 °C
3,"CC1Nc2ccc(-c3ccc(C#N)s3)cc2C(C)(C)O1 (stereo not shown) [Example 13, 5-(2,4,4-Trimethyl-1,4-dihydro-2H-3,1-benzoxazin-6-yl)thiophene-2-carbonitrile]",172 to 173 °C
4,"CC1Nc2ccc(-c3cc(F)cc(C#N)c3)cc2C(C)(C)O1 (stereo not shown) [Example 14, 3-Fluoro-5-(2,4,4-trimethyl-1,4-dihydro-2H-3,1-benzoxazin-6-yl)benzonitrile]",163 to 164 °C
5,"CC1Nc2ccc(-c3csc(C#N)c3)cc2C(C)(C)O1 (stereo not shown) [Example 15, 4-(2,4,4-Trimethyl-1,4-dihydro-2H-3,1-benzoxazin-6-yl)thiophene-2-carbonitrile]",175 to 176 °C
6,"Cc1cc(C#N)sc1-c1ccc2c(c1)C(C)(C)OC(C)N2 (stereo not shown) [Example 16, 4-Methyl-5(2,4,4-trimethyl-1,4-dihydro-2H-3,1-benzoxazin-6-yl)thiophene-2-carbonitrile]",145 to 146 °C
7,"C[C@@H]1Nc2ccc(-c3cc(F)cc(C#N)c3)cc2[C@](C)(c2ccccc2)O1 [Example 17, 3-[(2R,4S)-2,4-Dimethyl-4-phenyl-1,4-dihydro-2H-3,1-benzoxazin-6-yl]-5-fluorobenzonitrile]",128 to 129 °C
8,"CC1OC(C)(C)c2cc(-c3ccc(C#N)n3C(=O)OC(C)(C)C)ccc2N1C(=O)OCC1c2ccccc2-c2ccccc21 (stereo not shown) [Example 19, 9H-Fluoren-9-ylmethyl-6-[1-(tert-butoxycarbonyl)-5-cyano-1H-pyrrol-2-yl]-2,4,4-trimethyl-2H-3,1-benzoxazine-1(4H)-carboxylate]",135 to 136 °C
9,"CC1Nc2ccc(-c3ccc(C#N)[nH]3)cc2C(C)(C)O1 (stereo not shown) [Example 20, 5-(2,4,4-Trimethyl-1,4-dihydro-2H-3,1-benzoxazin-6-yl)1H-pyrrole-2-carbonitrile]",201 to 202 °C
10,"CC1Nc2ccc(-c3csc(C#N)c3)cc2C2(CCCCC2)O1 (stereo not shown) [Example 26, 4-(2-Methylspiro[2H-3,1-benzoxazine-4,1′-cyclohexane]-6-yl)2-thiophenecarbonitrile]",111 to 112 °C
11,"CC1Nc2ccc(-c3cccc(F)c3)cc2C(C)(C)O1 (stereo not shown) [Example 27, 6-(3-Fluorophenyl)-2,4,4-trimethyl-1,4-dihydro-2H-3,1-benzoxazine]",139 to 140 °C
12,"CC1Nc2ccc(-c3cccc(Cl)c3)cc2C(C)(C)O1 (stereo not shown) [Example 28, 6-(3-Chlorophenyl)-2,4,4-trimethyl-1,4-dihydro-2H-3,1-benzoxazine]",144 to 146 °C
13,"CC1Nc2ccc(-c3ccc(F)c(Cl)c3)cc2C(C)(C)O1 (stereo not shown) [Example 29, 6(3-Chloro-4-fluorophenyl)-2,4,4-trimethyl-1,4dihydro-2H-3,1-benzoxazine]",173 to 175 °C
14,"CC1Nc2ccc(-c3ccc(F)c(C#N)c3)cc2C(C)(C)O1 (stereo not shown) [Example 30, 2-Fluoro-5-(2,4,4-trimethyl-1,4-dihydro-2H-3,1-benzoxazin-6-yl)benzonitrile]",184 to 186 °C
15,"CC1Nc2ccc(-c3coc(C#N)c3)cc2C(C)(C)O1 (stereo not shown) [Example 31, 4-(2,4,4-Trimethyl-1,4-dihydro-2H-3,1-benzoxazin-6-yl)-2-furonitrile]",116 to 118 °C
16,"CC1(C)OC(C(F)(F)F)Nc2ccc(-c3cc(F)cc(C#N)c3)cc21 (stereo not shown) [Example 32, 3-[4,4-Dimethyl-2-(trifluoromethyl)-1,4-dihydro-2H-3,1-benzoxazin-6-yl]-5-fluorobenzonitrile]",102 to 103 °C
17,"Cc1cc(C#N)sc1-c1ccc2c(c1)C(C)(C)OC(C(F)(F)F)N2 (stereo not shown) [Example 38, 5-[4,4-Dimethyl-2-(trifluoromethyl)-1,4-dihydro-2H-3,1-benzoxazin-6yl]-4-methylthiophene-2-carbonitrile]",97 to 98 °C
18,"CC1(C)OC(C(F)(F)F)Nc2ccc(-c3cccc(Cl)c3)cc21 (stereo not shown) [Example 39, 6-(3-Chlorophenyl)-4,4-dimethyl-2-(trifluoromethyl)-1,4-dihydro-2H-3,1-benzoxazine]",108 to 109 °C
19,"CC1(C)CC(=O)Nc2ccc(-c3cccc(F)c3)cc21 [Example 40, 6(3-Fluorophenyl)-4,4-dimethyl-3,4-dihydroquinolin-2(1H)-one]",190 to 192 °C
20,"CC1(C)CC(=O)Nc2ccc(-c3cc(F)cc(C#N)c3)cc21 [Example 41, 3-(4,4-Dimethyl-2-oxo-1,2,3,4-tetrahydroquinolin-6-yl)-5-fluorobenzonitrile]",249 to 250 °C
21,"CC1(C)CC(=O)Nc2ccc(-c3cccc(C#N)c3)cc21 [Example 42, 3-(4,4-Dimethyl-2-oxo-1,2,3,4-tetrahydroquinolin-6-yl)benzonitrile]",190 to 192 °C
22,"CC1(C)CC(=S)Nc2ccc(-c3cccc(F)c3)cc21 [Example 44, 6-(3-Fluorophenyl)-4,4-dimethyl-3,4-dihydroquinoline-2(1H)-thione]",209 to 211 °C
23,"CC1(C)CC(=S)Nc2ccc(-c3cc(F)cc(C#N)c3)cc21 [Example 46, 3-(4,4-Dimethyl-2-thioxo-1,2,3,4-tetrahydroquinolin-6-yl)5-fluorobenzonitrile]",240 to 242 °C (dec.)
24,"CC1(C2CC2)NC(=O)Nc2ccc(-c3cccc(Cl)c3)cc21 (stereo not shown) [drawing 34, R = H, 6-(3-Chlorophenyl)-4-cyclopropyl-4-methyl-3,4-dihydro-1H-quinazolin-2-one]",125 to 127 °C
25,"CN1C(=O)Nc2ccc(-c3cccc(Cl)c3)cc2C1(C)C1CC1 (stereo not shown) [drawing 34, R = Me, 6-(3-Chlorophenyl)-4-cyclopropyl-3,4-dimethyl3,4dihydro-1H-guinazolin-2-one]",193 to 194 °C

# Test system: T47D cells
# Assay: T47D cell proliferation assay (BrdU incorporation)
# Type: cell-based
# Conditions: half-maximal decrease in trimegestone induced BrdU incorporation, read-out: Estimated IC50
# Protocol: 3. T47D Cell Proliferation Assay
# The objective of this assay is the determination of progestational and antiprogestational potency by using a cell proliferation assay in T47D cells. A compound's effect on DNA synthesis in T47D cells is measured.
# DMEM:F12 (1:1) (GIBCO, BRL) supplemented with 10% (v/v) fetal bovine serum (not heat-inactivated), 10 U/ml penicillin, […] streptornycin, and 2 mM GlutaMax (GIBCO, BRL).
# Minimum Essential Medium (MEM) (#51200-038GIBCO, BRL) phenol red-free supplemented with 0.5% charcoal stripped fetal bovine serum, 100 U/ml penicillin, […] streptornycin, and 2 mM GlutaMax (GIBCO, BRL).
# Stock T47 D cells are maintained in growth medium. For BrdU incorporation assay, cells are plated in 96-well plates (Falcon, Becton Dickinson Labware) at 10,000 cells/well in growth medium. […]
# At the end of BrdU labeling, the medium is removed and BrdU incorporation is measured using a cell proliferation ELISA kit (#RPN 250, Amersham Life Science) according to manufacturer's instructions. […] Then 25 μl of 1 M sulfuric acid is added to each well to stop color reaction and optical density is read in a plate reader at 450 nm within 5 min.
# Square root-transformed data are used for analysis of variance and nonlinear dose response curve fitting for both agonist and antagonist modes. […] EC50 or IC50 values are calculated from the retransformed values. […]
row,SMILES,IC50
1,CC#C[C@]1(O)CC[C@H]2[C@@H]3CCC4=CC(=O)CCC4=C3[C@@H](c3ccc(N(C)C)cc3)C[C@@]21C [RU486],0.016 nM and 0.018 nM

# Same assay, conditions: half-maximal increase in BrdU incorporation, individual studies, read-out: Estimated EC50
row,SMILES,EC50
1,"C[C@H](O)C(=O)[C@@]1(C)CC[C@H]2[C@@H]3CCC4=CC(=O)CCC4=C3CC[C@@]21C [Trimegestone, trimegestone]",0.017 nM and 0.014 nM and 0.019 nM
